This test deals with Bcl-xL (Homo sapiens). Description: Binding affinity to human Bcl-xL protein by fluorescence polarization assay. (In general: In fluorescence polarisation assays a small probe gives low polarisation when free and higher when bound to something large.)

For orientation: Ki means a dissociation constant, usually derived from enzyme kinetics or from competition with a known ligand.

As to `O=C(c1ccc(Oc2ccccc2)cc1)c1cc(C(=O)c2nc3ccccc3s2)c(O)c(O)c1O`, affinity was put at a Ki of 1110 nM. That is a single-digit micromolar value.

The values are drawn from BindingDB's records for doi:10.1021/jm701358v (2008).
